In US9994533B2, “Method of preparing ATG's analogue, and the application of ATG and it's analogue” (Longhua Hospital Shanghai University of Traditional Chinese …, priority 2016, dated 2018):

How the values were obtained:
NOX4 [1] = experiment: NOX4 protein expression in human immortal podocytes under high glucose (Western blot); type: cell-based; conditions: ATG 10 μmol/L
From the text: The detection method of Western Blot and mRNA used in the present embodiment is a detection method commonly used by person skilled in the art, and the specific detection method is described in “Molecular Biology Laboratory Manual” (People's Military Medical Press, published in 2011 Jun. 1). 3.1 Western blot and Realtime PCR confirmed that ATG in human immortal podocytes can inhibit the overexpression of NOX4 caused by high glucose stimuli, see table 5 and FIG. 6. The expression of NOX4 in the total protein, membrane protein and mitochondrial protein of human immortal podocytes was detected in the experiment. […] The meanings of the symbols in FIG. 6 are as follows: HG: high glucose (glucose […]); T: total protein; Tmeb cell membrane protein; Mito: mitochondrial protein.

NOX4 [2] = experiment: NOX4 protein expression in glomeruli of STZ-eNOS−/− mice (Western Blot); type: in vivo; conditions: for NOX4/GAPDH mean: glomeruli, Western Blot
From the text: The detection method of Western Blot and mRNA used in the present embodiment is a detection method commonly used by person skilled in the art, and the specific detection method is described in “Molecular Biology Laboratory Manual” (People's Military Medical Press, published in 2011 Jun. 1). 2. ATG can decrease NOX4's protein and mRNA expression in glomeruli of STZ-eNOS^−/− mice.

[3] = biological target: T1, Keratin, type I cytoskeletal 17 (Homo sapiens, UniProt Q04695); experiment: DARTS mass spectrometry of 293T lysate after ATG; type: binding; conditions: ATG 300 μM, pronase 1:1000, K1C17_HUMAN
T1 construct: endogenous in cells; host or cells: 293T
T1 sequence (Q04695 1-432): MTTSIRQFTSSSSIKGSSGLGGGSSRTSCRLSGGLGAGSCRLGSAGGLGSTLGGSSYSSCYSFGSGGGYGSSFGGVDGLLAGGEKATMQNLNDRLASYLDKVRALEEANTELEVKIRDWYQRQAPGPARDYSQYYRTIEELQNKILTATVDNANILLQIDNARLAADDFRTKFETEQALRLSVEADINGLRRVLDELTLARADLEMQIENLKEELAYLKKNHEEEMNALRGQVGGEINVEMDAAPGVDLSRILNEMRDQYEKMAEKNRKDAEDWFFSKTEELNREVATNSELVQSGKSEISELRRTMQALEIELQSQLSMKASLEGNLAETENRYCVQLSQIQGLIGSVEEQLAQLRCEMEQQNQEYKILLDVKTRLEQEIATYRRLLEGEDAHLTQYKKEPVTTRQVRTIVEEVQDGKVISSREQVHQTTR
Experimental: (§1) 293T cells were digested with M-PER mammalian protein extraction buffer (78501 ThermoFisher) and phosphatase inhibitor (50 mM NaF, 10 mM β-glycerophosphate, 5 mM sodium pyrophosphate, 2 mM Na3VO4); and the protein concentration is determined by Bradford method (500-0006 Bio-rad). ATG was either added or not in the cell lysate. If added, the concentration of ATG was 300 μM. The cells were incubated at room temperature for 1 h. The cells were then lysed by incubating for 20 minutes at room temperature with different concentrations of pronase at 1:1000 (10165921001, Roche). The two groups of lysates are subjected to mass spectrometry and then compared.

[4] = biological target: T2, Protein transport protein Sec61 subunit alpha isoform 1 (Homo sapiens, UniProt P61619); experiment: DARTS mass spectrometry of 293T lysate after ATG; type: binding; conditions: ATG 300 μM, pronase 1:1000, S61A1_HUMAN
T2 construct: endogenous in cells; host or cells: 293T
T2 sequence (P61619 whole entry, canonical isoform): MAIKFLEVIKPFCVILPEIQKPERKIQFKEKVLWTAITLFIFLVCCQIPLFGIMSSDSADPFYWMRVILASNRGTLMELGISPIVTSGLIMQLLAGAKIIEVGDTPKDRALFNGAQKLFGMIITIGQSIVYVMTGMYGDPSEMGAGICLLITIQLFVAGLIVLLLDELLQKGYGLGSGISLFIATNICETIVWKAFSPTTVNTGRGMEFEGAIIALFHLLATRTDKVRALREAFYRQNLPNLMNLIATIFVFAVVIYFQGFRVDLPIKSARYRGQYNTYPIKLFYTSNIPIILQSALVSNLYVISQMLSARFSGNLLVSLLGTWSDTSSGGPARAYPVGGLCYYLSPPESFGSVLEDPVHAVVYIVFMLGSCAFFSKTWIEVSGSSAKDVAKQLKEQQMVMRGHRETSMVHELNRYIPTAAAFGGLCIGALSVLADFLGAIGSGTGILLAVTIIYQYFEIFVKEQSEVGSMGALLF
Experimental: as §1

[5] = biological target: T3, Heterogeneous nuclear ribonucleoprotein H2 (Homo sapiens, UniProt P55795); experiment: DARTS mass spectrometry of 293T lysate after ATG; type: binding; conditions: ATG 300 μM, pronase 1:1000, HNRH2_HUMAN
T3 construct: endogenous in cells; host or cells: 293T
T3 sequence (P55795 1-449): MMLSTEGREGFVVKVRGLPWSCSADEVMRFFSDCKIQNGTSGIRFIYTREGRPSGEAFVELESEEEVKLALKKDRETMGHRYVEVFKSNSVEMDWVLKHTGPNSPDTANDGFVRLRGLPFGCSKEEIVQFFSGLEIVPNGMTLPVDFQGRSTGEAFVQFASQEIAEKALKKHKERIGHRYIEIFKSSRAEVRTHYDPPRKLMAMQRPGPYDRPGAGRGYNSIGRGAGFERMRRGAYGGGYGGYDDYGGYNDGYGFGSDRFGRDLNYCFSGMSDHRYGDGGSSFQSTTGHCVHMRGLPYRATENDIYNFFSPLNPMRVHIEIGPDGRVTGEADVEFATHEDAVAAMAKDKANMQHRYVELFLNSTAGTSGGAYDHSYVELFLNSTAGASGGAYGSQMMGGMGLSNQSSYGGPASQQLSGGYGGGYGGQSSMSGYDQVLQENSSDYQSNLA
Experimental: as §1

Tubulin beta-6 chain = biological target: T4, Tubulin beta-6 chain (Homo sapiens, UniProt Q9BUF5); experiment: DARTS mass spectrometry of 293T lysate after ATG; type: binding; conditions: ATG 300 μM, pronase 1:1000, TBB6_HUMAN
T4 construct: endogenous in cells; host or cells: 293T
T4 sequence (Q9BUF5 whole entry): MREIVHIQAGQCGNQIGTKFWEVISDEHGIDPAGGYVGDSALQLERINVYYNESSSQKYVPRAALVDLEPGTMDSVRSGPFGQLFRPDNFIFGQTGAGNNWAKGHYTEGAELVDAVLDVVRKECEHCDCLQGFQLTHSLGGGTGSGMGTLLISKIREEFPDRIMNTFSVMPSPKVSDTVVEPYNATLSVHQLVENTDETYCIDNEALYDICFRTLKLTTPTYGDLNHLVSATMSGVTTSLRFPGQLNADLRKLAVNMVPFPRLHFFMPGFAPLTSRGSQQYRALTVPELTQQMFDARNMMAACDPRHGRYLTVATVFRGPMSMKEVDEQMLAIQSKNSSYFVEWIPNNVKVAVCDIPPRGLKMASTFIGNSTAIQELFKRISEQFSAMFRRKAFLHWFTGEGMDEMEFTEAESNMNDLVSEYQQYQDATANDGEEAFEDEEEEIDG
T4 sequence (P68363 whole entry partner): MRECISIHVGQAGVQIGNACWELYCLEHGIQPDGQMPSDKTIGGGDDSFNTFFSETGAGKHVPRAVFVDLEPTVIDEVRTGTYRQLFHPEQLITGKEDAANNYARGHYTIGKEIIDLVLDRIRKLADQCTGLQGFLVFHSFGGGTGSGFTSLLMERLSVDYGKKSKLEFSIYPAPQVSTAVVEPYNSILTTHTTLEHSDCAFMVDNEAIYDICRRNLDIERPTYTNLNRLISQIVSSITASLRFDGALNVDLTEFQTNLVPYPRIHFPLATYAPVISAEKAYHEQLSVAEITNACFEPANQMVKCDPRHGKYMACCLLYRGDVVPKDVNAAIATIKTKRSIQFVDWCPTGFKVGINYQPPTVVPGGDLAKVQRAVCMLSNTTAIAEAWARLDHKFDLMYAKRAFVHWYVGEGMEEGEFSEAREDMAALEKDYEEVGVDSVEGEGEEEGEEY
Experimental: as §1
(§2) Furthermore, since the content of PP2A in cells is very low in the normal state, it is considered that the binding ratio of ATG and PP2A is high.

Tubulin beta-3 chain = biological target: T5, Tubulin beta-3 chain (Homo sapiens, UniProt Q13509); experiment: DARTS mass spectrometry of 293T lysate after ATG; type: binding; conditions: ATG 300 μM, pronase 1:1000, TBB3_HUMAN
T5 construct: endogenous in cells; host or cells: 293T
T5 sequence (Q13509 whole entry): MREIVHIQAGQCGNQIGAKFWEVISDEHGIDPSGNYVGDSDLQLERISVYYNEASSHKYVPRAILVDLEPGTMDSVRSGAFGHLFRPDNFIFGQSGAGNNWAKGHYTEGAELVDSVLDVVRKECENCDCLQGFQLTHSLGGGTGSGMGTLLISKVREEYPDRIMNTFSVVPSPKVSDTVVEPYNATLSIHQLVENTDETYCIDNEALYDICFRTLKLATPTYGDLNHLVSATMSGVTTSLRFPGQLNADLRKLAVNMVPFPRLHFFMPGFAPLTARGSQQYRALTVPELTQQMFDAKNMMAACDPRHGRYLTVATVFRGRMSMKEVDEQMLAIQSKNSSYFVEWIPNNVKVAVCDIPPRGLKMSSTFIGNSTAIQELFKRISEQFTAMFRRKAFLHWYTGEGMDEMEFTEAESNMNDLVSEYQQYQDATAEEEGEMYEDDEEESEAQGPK
T5 sequence (P68363 whole entry partner): as the sequence (P68363 whole entry partner) above
Experimental: as §1, §2

[6] = biological target: T6, Serine/threonine-protein phosphatase 2A catalytic subunit beta isoform (Homo sapiens, UniProt P62714); experiment: DARTS mass spectrometry of 293T lysate after ATG; type: binding
T6 construct: endogenous in cells; host or cells: 293T
T6 sequence (P62714 whole entry, canonical isoform): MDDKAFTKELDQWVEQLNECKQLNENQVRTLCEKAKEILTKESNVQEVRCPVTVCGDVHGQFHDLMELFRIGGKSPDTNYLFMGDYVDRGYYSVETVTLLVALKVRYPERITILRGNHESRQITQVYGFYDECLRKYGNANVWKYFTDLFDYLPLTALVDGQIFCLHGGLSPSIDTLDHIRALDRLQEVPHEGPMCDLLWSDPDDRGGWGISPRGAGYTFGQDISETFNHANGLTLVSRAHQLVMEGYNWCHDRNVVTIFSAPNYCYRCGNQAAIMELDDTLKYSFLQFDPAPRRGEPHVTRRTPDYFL
Experimental: as §1, §2

[7] = ATG 300 μM, pronase 1:1000, PP2AB_HUMAN

COc1cc(C[C@H]2C(=O)OC[C@@H]2Cc2ccc(OC)c(OC)c2)ccc1O [ATG, Arctigenin]
T-NOX4/β-actin mean (NOX4 [1]; High glucose-ATG, total protein, podocytes): 1.13
expression of NOX4 in total protein, membrane protein and mitochondrial protein (NOX4 [1]; high glucose, FIG. 6): can inhibit the expression of NOX4 in the above three kinds of structures
NOX4/GAPDH mean (NOX4 [2]; Normal group-ATG): 0.13
NOX4/GAPDH mean (NOX4 [2]; STZ-ATG): 0.14
NOX4's protein expression in glomerular, versus untreated group (NOX4 [2]; STZ-eNOS mice administered with ATG): significantly less than that of the untreated group
Ratio (ATG/DMSO) [3]: 4.7
Spectral Count (ATG) [3]: 7
Ratio (ATG/DMSO) [4]: 4.7
Spectral Count (ATG) [4]: 7
Ratio (ATG/DMSO) [5]: 6.8
Spectral Count (ATG) [5]: 12
Ratio (ATG/DMSO) (Tubulin beta-6 chain): 13.6
Spectral Count (ATG) (Tubulin beta-6 chain): 25
Ratio (ATG/DMSO) (Tubulin beta-3 chain): 25.6
Spectral Count (ATG) (Tubulin beta-3 chain): 49
Ratio (ATG/DMSO) [6, 7]: 7.8
Spectral Count (ATG) [6, 7]: 14
binding ratio of ATG and PP2A ([6]; conclusion from mass spectrometry): high
